Experimental findings from patent US6605742B2, “Cyclo azaphospha hydrocarbons” (priority 2001, dated 2003) are described below.

Common to all, as to assay type: biochemical
The target in one experiment is T1, MMP-9 (Homo sapiens, UniProt P14780).
T1 construct: purchased Chemicon International, CA, USA
Kind of experiment: Test for MMP inhibitory effects: cleavage of fluorescein-conjugated gelatin by MMP-9. The method, then: (§1) The assay measures the effect of the tested compounds on the proteolytic activity of metalloproteases by assessing the cleavage of a fluorogenic substrate. In the uncleaved substrate the fluoresensce is quenched intramolecularly, however, cleavage of the substrate relieves the quenching yielding fluorescent peptides [Bickett, Anal. Biochem, 212, 58-64, 1993; Knight, FEBS Lett., 296, 263-266, 1992].
(§2) The compounds were tested for inhibitory effects towards MMP-1 and MMP-9 (Chemicon International, CA, USA) and MMP-2 (Biogenesis Ltd, UK). Substrate for MMP-1 was M-2055 (Dnp-Pro-β-cyclohexyl-Ala-Gly-Cys(Me)-His-Ala-Lys(N-Me-Abz)-NH2), which is a synthetic peptide-like structure, obtained from Bachem AG, Schwitzerland. Substrate for MMP-2 and MMP-9 was fluorescein-conjugated gelatin obtained from Molecular Probes Inc., OR, USA.
(§3) The enzymes were activated with phenyl mercuric acetate, and incubated with the appropriate substrate and different levels of the compound to be tested. The exitation/emission wavelengths were 350/450 and 485/530 for M-2055 and gelatine, respectively.
(§4) The molar concentration of the test compounds resulting in 50% inhibition of the enzymatic activity (IC50) was calculated from the dose-response curve. For convenience, the results are reported as pIC50, i.e. −log(IC50).

In the next experiment the target is T2, MMP-1 (Homo sapiens, UniProt P03956).
T2 construct: purchased Chemicon International, CA, USA
T2 sequence (P03956 100-469): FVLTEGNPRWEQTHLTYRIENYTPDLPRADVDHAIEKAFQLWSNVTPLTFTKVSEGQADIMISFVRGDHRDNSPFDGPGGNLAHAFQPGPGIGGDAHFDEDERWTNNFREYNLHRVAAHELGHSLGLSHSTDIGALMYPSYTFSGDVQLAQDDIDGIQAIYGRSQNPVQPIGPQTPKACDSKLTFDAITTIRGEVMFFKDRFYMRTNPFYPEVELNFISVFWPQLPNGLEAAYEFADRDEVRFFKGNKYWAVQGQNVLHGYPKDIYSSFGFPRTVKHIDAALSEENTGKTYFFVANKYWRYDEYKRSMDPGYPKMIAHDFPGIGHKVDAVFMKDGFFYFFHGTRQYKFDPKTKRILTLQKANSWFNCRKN
Put plainly: Test for MMP inhibitory effects: cleavage of fluorogenic substrate M-2055 by MMP-1. How it is done:
as §1, §2, §3, §4

The next experiment concerns the target T3, MMP-2 (Homo sapiens, UniProt P08253).
T3 construct: purchased Biogenesis Ltd, UK
T3 sequence (P08253 110-660): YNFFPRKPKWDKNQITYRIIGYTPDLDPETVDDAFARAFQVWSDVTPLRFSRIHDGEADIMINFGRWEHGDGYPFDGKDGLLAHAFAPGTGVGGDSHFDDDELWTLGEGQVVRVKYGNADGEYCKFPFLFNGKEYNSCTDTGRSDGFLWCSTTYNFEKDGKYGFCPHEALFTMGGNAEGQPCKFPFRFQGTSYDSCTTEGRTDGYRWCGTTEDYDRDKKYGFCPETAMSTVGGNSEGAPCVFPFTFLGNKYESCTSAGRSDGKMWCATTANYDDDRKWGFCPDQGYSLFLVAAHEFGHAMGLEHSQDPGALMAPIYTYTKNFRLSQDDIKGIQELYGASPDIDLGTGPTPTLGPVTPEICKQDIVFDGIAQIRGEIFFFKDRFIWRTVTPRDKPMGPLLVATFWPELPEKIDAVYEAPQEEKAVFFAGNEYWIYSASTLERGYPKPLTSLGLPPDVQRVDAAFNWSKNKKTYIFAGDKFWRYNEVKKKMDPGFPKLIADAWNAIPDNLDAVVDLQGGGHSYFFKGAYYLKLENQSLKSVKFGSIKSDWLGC
Put plainly: Test for MMP inhibitory effects: cleavage of fluorescein-conjugated gelatin by MMP-2. The method, then: as §1, §2, §3, §4

[1] abbreviates: pIC50 = -log(IC50), molar, enzyme activated with phenyl mercuric acetate, substrate fluorescein-conjugated gelatin, excitation/emission 485/530.

T1 sequence (P14780 107-707 limits assumed, species assumed): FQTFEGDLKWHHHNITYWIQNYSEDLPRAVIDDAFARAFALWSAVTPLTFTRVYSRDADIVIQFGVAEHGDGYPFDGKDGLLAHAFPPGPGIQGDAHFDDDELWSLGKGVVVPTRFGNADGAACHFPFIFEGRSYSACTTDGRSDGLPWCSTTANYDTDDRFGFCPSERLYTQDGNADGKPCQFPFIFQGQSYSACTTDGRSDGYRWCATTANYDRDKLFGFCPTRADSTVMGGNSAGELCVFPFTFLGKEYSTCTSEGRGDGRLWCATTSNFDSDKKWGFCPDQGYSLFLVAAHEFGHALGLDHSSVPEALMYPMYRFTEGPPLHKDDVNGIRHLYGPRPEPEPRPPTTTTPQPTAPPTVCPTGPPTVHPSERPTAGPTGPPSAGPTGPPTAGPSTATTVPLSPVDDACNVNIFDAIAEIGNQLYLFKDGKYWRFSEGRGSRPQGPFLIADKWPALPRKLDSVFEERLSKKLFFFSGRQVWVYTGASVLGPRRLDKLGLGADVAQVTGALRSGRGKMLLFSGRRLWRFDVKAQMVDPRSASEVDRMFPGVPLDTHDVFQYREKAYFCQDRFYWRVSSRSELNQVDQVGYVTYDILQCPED

The IC50 is the midpoint of a concentration-inhibition curve. A high value points to a need for much substance. With `O=C(CN1CC=CCCP1(=O)c1ccc(Oc2ccccc2)cc1)NO` (racemic) [Example 4, (±)-N-hydroxy-2-oxo-2-(4-phenoxyphenyl)-azaphosphorep-5-ene-1-acetamide], the IC50 is 6.31 nM against MMP-9, 7940 nM on MMP-1 and 7.94 nM on MMP-2.
On to `O=C(CN1CC=CCP1(=O)c1ccc(Oc2ccc(Cl)cc2)cc1)NO` (racemic) [Example 6, (±)-N-hydroxy-2-(4-(4-chlorophenoxy)-phenyl-2-oxo-azaphosphorin-4-ene-1-acetamide], for which the IC50 was 0.794 nM on MMP-9, 5010 nM on MMP-1 and 3.98 nM against MMP-2.
On the same counts, the results for `O=C(CN1CC=CCP1(=O)c1ccc(Oc2ccccc2)cc1)NO` (racemic) [Example 1, (±)-N-hydroxy-2-oxo-2-(4-phenoxyphenyl)-azaphosphorin-4-ene-1-acetamide] are 1 nM, 2510 nM and 5.01 nM.
With `O=C(CN1CCCCCP1(=O)c1ccc(Oc2ccccc2)cc1)NO` (racemic) [Example 5, (±)-N-hydroxy-2-oxo-2-(4-phenoxyphenyl)-azaphosphorepane-1-acetamide], on MMP-9 (setting [1]), the “pIC50 MMP-9” value amounted to 8.5. In addition, the “pIC50 MMP-1” value against MMP-1 (pIC50 = -log(IC50), molar, enzyme activated with phenyl mercuric acetate, substrate M-2055, excitation/emission 350/450) amounted to 5.2. Besides, the “pIC50 MMP-2” value against MMP-2 (setting [1]) is 8.3.
